Assay results published in the NIST ThermoML archive (doi:10.1016/j.jct.2014.06.006).
± gives the expanded uncertainty stated by the source.

Test: activity coefficient (dimensionless); of the first substance listed, at infinite dilution; xn = mol fraction of the nth substance listed
Conditions: 298 K; 238 kPa; Liquid; Chromatography; x1 = 0

activity coefficient	Compound
10.6 ± 0.5	C=CCCCCC=C [1,7-octadiene] + COCCO
10 ± 0.5	Cc1ccc(C(C)C)cc1 [1-(1-methylethyl)-4-methylbenzene] + COCCO
11.8 ± 1.1	c1ccccc1 [benzene] + CC(O)CO
2.4 ± 0.4	c1ccccc1 [benzene] + COCCO
11.4 ± 0.7	C1CCCCC1 [cyclohexane] + COCCO
7.4 ± 0.3	C1=CCCCC1 [cyclohexene] + COCCO
20.1 ± 0.9	C1CCCCCCC1 [cyclooctane] + COCCO
56.8 ± 2.2	CCCCCCCCCC [decane] + COCCO
26.2 ± 3.1	CCc1ccccc1 [ethylbenzene] + CC(O)CO
4.9 ± 0.3	CCc1ccccc1 [ethylbenzene] + COCCO
8.5 ± 0.5	Fc1ccccc1 [fluorobenzene] + CC(O)CO
1.8 ± 0.2	Fc1ccccc1 [fluorobenzene] + COCCO
109 ± 30	CCCCCCC [heptane] + CC(O)CO
22.4 ± 0.9	CCCCCCC [heptane] + COCCO
63 ± 20	CCCCCC [hexane] + CC(O)CO
16.3 ± 0.8	CCCCCC [hexane] + COCCO
14.7 ± 0.9	CC1CCCCC1 [methylcyclohexane] + COCCO
11 ± 0.7	CC1CCCC1 [methylcyclopentane] + COCCO
136 ± 21	c1ccc2ccccc2c1 [naphthalene] + CC(O)CO
11 ± 2	c1ccc2ccccc2c1 [naphthalene] + COCCO
41.4 ± 1.7	CCCCCCCCC [nonane] + COCCO
150 ± 40	CCCCCCCC [octane] + CC(O)CO
27.9 ± 1	CCCCCCCC [octane] + COCCO
94.6 ± 3.7	CCCCCCCCCCC [undecane] + COCCO

Compound	activity coefficient
Cc1ccccc1C [1,2-dimethylbenzene] + CC(O)CO	26.3 ± 3.1
Cc1ccccc1C [1,2-dimethylbenzene] + COCCO	5 ± 0.3
Cc1cccc(C)c1 [1,3-dimethylbenzene] + CC(O)CO	28.4 ± 2.2
Cc1cccc(C)c1 [1,3-dimethylbenzene] + COCCO	5.2 ± 0.3
Cc1ccc(C)cc1 [1,4-dimethylbenzene] + CC(O)CO	26.7 ± 3.1
Cc1ccc(C)cc1 [1,4-dimethylbenzene] + COCCO	5.2 ± 0.3
C=CC1CC=CCC1 (stereo unspecified) [4-ethenylcyclohexene] + COCCO	8.6 ± 0.3
Brc1ccccc1 [bromobenzene] + COCCO	3.5 ± 0.2
Clc1ccccc1 [chlorobenzene] + CC(O)CO	13.6 ± 1.1
Clc1ccccc1 [chlorobenzene] + COCCO	2.9 ± 0.4
Cc1ccccc1 [toluene] + CC(O)CO	17 ± 2.1
Cc1ccccc1 [toluene] + COCCO	3.6 ± 0.4
